Measurements from the supplement of paper PMC11579375.

Experiments:
Experiment in all cases: area under the viability dose-response curve (AUC) (AUC (arbitrary units, max 500 = no viability loss)); higher = less sensitive (higher viability)
Settings in all cases: exposure time: 120 h; concentration range: 0.1 nM - 10 µM, 6 doses
10F2 = test system: 10F2 (fetal-II hepatoblastoma organoid with high liver markers)
Protocol: (§1)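 Patient-derived hepatoblastoma tumor organoids (about 50 organoids per well, 384-well plates, medium with 5% BME) were treated with the PMC pediatric cancer drug library. Each drug was tested in duplicate at 6 concentrations (0.1 nM to 10 µM, 10-fold steps).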

27F1 = test system: 27F1 (fetal-I hepatoblastoma organoid with intermediate liver markers)
Protocol: as §1

8F1 = test system: 8F1 (fetal-I hepatoblastoma organoid with intermediate liver markers)
Protocol: as §1

17E = test system: 17E (embryonal-type hepatoblastoma organoid)
Protocol: as §1

135F2 = test system: 135F2 (fetal-II hepatoblastoma organoid with high liver markers)
Protocol: as §1

22E = test system: 22E (embryonal-type hepatoblastoma organoid)
Protocol: as §1

13F2 = test system: 13F2 (fetal-II hepatoblastoma organoid with high liver markers)
Protocol: as §1

3E = test system: 3E (embryonal-type hepatoblastoma organoid)
Protocol: as §1

96F1 = test system: 96F1 (fetal-I hepatoblastoma organoid with intermediate liver markers)
Protocol: as §1

13E = test system: 13E (embryonal-type hepatoblastoma organoid)
Protocol: as §1

17F1 = test system: 17F1 (fetal-I hepatoblastoma organoid with intermediate liver markers)
Protocol: as §1

Structure (SMILES)	area under the viability dose-response curve (10F2)	area under the viability dose-response curve (27F1)	area under the viability dose-response curve (8F1)	area under the viability dose-response curve (17E)	area under the viability dose-response curve (135F2)	area under the viability dose-response curve (22E)	area under the viability dose-response curve (13F2)	area under the viability dose-response curve (3E)	area under the viability dose-response curve (96F1)	area under the viability dose-response curve (13E)	area under the viability dose-response curve (17F1)
CCn1cc(-c2ccnc3[nH]c(-c4cccc(CN(C)C)c4)cc23)c(-c2ccc(NC(=O)N(C)C)cc2)n1	307	387	458	297	370	408	298	322	413	382	477
C=CC(=O)N1CCC[C@@H](n2nc(-c3ccc(Oc4ccccc4)cc3)c3c(N)ncnc32)C1 [Ibrutinib]	386	418	480	439	455	443	358	> 500	438	476	488
CC(C)(C)c1nc(-c2cccc(NS(=O)(=O)c3c(F)cccc3F)c2F)c(-c2ccnc(N)n2)s1 [Dabrafenib]	422	497	> 500	494	471	486	411	491	456	497	> 500
CS(=O)(=O)c1ccc(C(=O)Nc2ccc(Cl)c(-c3ccccn3)c2)c(Cl)c1 [Vismodegib]	443	497	> 500	> 500	473	452	490	> 500	494	496	489
CN1CCN(CCOc2cc(OC3CCOCC3)c3c(Nc4c(Cl)ccc5c4OCO5)ncnc3c2)CC1 [Saracatinib]	422	381	475	455	478	477	415	492	466	464	493
CC(C)C[C@H](NC(=O)[C@H](Cc1ccccc1)NC(=O)c1cnccn1)B(O)O [Bortezomib]	189	200	207	173	191	193	182	133	210	179	170
CC(C)C[C@H](NC(=O)CNC(=O)c1cc(Cl)ccc1Cl)B(O)O [Ixazomib]	246	282	287	247	261	321	264	256	294	282	278
CNC(=O)c1ccc(-c2cnc3ncc(Cc4ccc5ncccc5c4)n3n2)cc1F [Capmatinib]	> 500	465	460	481	491	462	403	> 500	478	498	477
Nc1ccn([C@@H]2O[C@H](CO)[C@@H](O)[C@@H]2O)c(=O)n1 [Cytarabine]	481	427	479	425	403	433	377	370	378	425	393
CN(C)C(=N)NC(=N)N [Metformin]	469	–	–	> 500	> 500	> 500	> 500	–	> 500	> 500	482
COCCOc1cnc2ccn([C@H](C)c3nnc4c(F)cc(-c5cnn(C)c5)cn34)c(=O)c2c1 [AMG 337]	446	–	–	494	488	> 500	483	–	> 500	488	495
CS(=O)(=O)OCCCCOS(C)(=O)=O [Busulfan]	> 500	–	–	> 500	> 500	490	> 500	–	485	489	> 500
CCCCCCCCCCCCCCCCCCOP(=O)([O-])OC1CC[N+](C)(C)CC1 [Perifosine]	470	> 500	482	499	–	> 500	480	> 500	–	> 500	> 500
O=C1c2c(O)ccc(O)c2C(=O)c2c(NCCNCCO)ccc(NCCNCCO)c21 [Mitoxantrone]	294	–	405	257	285	340	222	208	313	274	319
Cc1c2oc3c(C)ccc(C(=O)N[C@@H]4C(=O)N[C@H](C(C)C)C(=O)N5CCC[C@H]5C(=O)N(C)CC(=O)N(C)[C@@H](C(C)C)C(=O)O[C@@H]4C)c3nc-2c(C(=O)N[C@@H]2C(=O)N[C@H](C(C)C)C(=O)N3CCC[C@H]3C(=O)N(C)CC(=O)N(C)[C@@H](C(C)C)C(=O)O[C@@H]2C)c(N)c1=O [Actinomycin D]	160	–	222	150	127	215	114	134	169	205	187
O=C(/C=C\n1cnc(-c2cc(C(F)(F)F)cc(C(F)(F)F)c2)n1)NNc1cnccn1 [Selinexor]	360	415	489	387	378	–	319	349	395	345	443
C/C=C1\NC(=O)[C@H]2CSSCC/C=C/[C@H](CC(=O)N[C@H](C(C)C)C(=O)N2)OC(=O)[C@H](C(C)C)NC1=O [Romidepsin]	141	165	145	104	137	–	143	87.9	54.5	123	158
CN(C)C(=O)c1cc2cnc(Nc3ccc(N4CCNCC4)cn3)nc2n1C1CCCC1 [Ribociclib]	442	442	470	406	461	–	422	404	472	446	473
